The source of these data is ChEMBL document CHEMBL1152569, “Synthesis, structure-affinity relationships, and modeling of AMDA analogs at 5-HT2A and H1 receptors: structural factors contributing to selectivity” (Bioorg Med Chem, 2009).

Each structure is given as a SMILES string.

As usually defined, the Ki is the dissociation constant of the complex between target and ligand, obtained from inhibition or displacement.

The target in experiment [1] is 5-hydroxytryptamine receptor 2A (Homo sapiens, UniProt P28223). The experiment in a line: Displacement of [3H]ketanserin from human 5HT2A receptor expressed in cells. The format is cell-based. (In general: Displacement assays read how much labelled ligand stays bound in the presence of the test substance.)
Experiment [2] deals with Histamine H1 receptor (Homo sapiens, UniProt P35367). The experiment in a line: Displacement of [3H]chlorphniramine from human histamine H1 receptor expressed in cells. The format is cell-based.
Sequence of Histamine H1 receptor (P35367 whole entry): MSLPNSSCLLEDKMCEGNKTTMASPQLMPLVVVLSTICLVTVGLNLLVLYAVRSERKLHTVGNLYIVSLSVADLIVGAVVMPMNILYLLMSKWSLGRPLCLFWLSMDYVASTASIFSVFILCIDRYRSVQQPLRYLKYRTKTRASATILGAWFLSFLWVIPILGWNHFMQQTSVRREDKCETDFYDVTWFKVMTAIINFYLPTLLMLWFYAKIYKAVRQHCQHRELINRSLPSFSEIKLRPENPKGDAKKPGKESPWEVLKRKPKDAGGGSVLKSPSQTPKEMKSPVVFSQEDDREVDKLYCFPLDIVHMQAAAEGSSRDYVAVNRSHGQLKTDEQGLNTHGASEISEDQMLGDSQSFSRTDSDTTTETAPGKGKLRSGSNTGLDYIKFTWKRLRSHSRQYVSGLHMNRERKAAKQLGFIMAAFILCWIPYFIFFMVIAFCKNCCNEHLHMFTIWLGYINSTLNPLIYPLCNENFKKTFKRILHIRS

Sequence of 5-hydroxytryptamine receptor 2A (P28223 whole entry): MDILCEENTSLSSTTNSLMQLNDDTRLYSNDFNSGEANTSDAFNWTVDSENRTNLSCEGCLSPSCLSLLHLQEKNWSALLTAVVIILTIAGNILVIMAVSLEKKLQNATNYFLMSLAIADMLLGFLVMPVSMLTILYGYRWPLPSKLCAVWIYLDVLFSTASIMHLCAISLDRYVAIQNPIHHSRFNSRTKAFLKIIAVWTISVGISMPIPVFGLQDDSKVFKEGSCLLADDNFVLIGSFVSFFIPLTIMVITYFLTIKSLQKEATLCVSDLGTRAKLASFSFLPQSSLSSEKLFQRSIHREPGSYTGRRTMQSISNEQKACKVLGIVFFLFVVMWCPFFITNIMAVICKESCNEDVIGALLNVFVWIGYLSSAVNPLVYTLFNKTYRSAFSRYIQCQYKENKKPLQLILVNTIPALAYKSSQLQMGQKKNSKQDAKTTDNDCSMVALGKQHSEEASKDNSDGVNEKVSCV

`CN(C)CCC(c1ccccc1)c1ccccc1`: the Ki was 1640 nM in experiment [1] and 75 nM in experiment [2].

On to `CNCCC(c1ccccc1)c1ccccc1`, for which the Ki was determined as 1500 nM in experiment [1] and 64 nM in experiment [2].

Consider `CN(C)CC1c2ccccc2Cc2ccccc21`, for which the Ki in experiment [2] was found to be 25 nM. In the case of `CNCCC1c2ccccc2Cc2ccccc21`, the Ki is 92 nM in experiment [1] and 48 nM in experiment [2]. In experiment [2], `CNCC1c2ccccc2Cc2ccccc21` showed a Ki of 189 nM.

Take `CNCCCC1c2ccccc2Cc2ccccc21`: the affinity in experiment [2], expressed as Ki, was 3 nM. `CN(C)CC(c1ccccc1)c1ccccc1`: the values for the Ki in experiment [1] and in experiment [2] were 7360 nM and 5170 nM, respectively. On to `CNCC(c1ccccc1)c1ccccc1`, for which the Ki in experiment [1] and in experiment [2] was more than 10000 nM each time. `CN(C)CCCC1c2ccccc2Cc2ccccc21` returned a Ki in experiment [2] of 0.5 nM. Take `NCC1c2ccccc2Cc2ccccc21`: the Ki in experiment [2] was 197 nM. Compared with the last compound, the Ki is about 390-fold higher. In the case of `CN(C)CCCC(c1ccccc1)c1ccccc1`, the Ki amounted to 1150 nM in experiment [1] and 70 nM in experiment [2].

Turning to `NCC(c1ccccc1)c1ccccc1`, the Ki in experiment [2] was more than 10000 nM.

For the compound `NCCCC(c1ccccc1)c1ccccc1`, the Ki amounted to 2590 nM in experiment [1] and 1670 nM in experiment [2]. As for `NCCC1c2ccccc2Cc2ccccc21`, the Ki in experiment [2] is 137 nM. Compound `NCCCC1c2ccccc2Cc2ccccc21` gave a Ki in experiment [2] of 175 nM. Take `CNCCCC(c1ccccc1)c1ccccc1`: the figures for the Ki in experiment [1] and in experiment [2] were 754 nM and 386 nM, respectively. As to `CN(C)CCC1c2ccccc2Cc2ccccc21`, the Ki in experiment [1] is 84 nM; in experiment [2], 6 nM. In the same order, the values of `NCCC(c1ccccc1)c1ccccc1` are more than 10000 nM and 2760 nM.
